# Experimental data: patent US11466286B2, “Methods and compositions for conferring and/or enhancing herbicide tolerance using protoporphyrinogen oxidase or variant thereof” (FarmHannong Co., Ltd., priority 2016, dated 2022)
# Tests used:
# [1] = tested on: CyPPO13 (Synechococcus sp. JA-3-3Ab PPO, SEQ ID NO: 4) variant F373C, MBP fusion; test: PPO inhibition assay; format: biochemical; details: herbicide 0-5,000 nM, 50 μM substrate
# Method: (§1) The enzyme activities of PPO protein and PPO protein variants were examined, and inhibition assay by PPO-inhibiting herbicides was conducted. It was confirmed that the PPO protein has low water-solubility, but in case of being expressed as a fusion protein with MBP (maltose binding protein) (MBP-PPO), the PPO protein is able to be stably expressed as water-soluble form. Therefore, the wild type and variant proteins which were expressed in the form of fusion protein with MBP were used in the present test (refer to FIG. 4).
# (§2) At first, a substrate of PPO protein, Protoporphyrinogen IX was synthesized. This process was performed in the space where nitrogen gas is streamed. 6 mg of protoporphyrin IX was dissolved in 20% (v/v) EtOH 20 ml, and stirred under dark condition for 30 minutes. The obtained protoporphyrinogen IX solution was put into a 15 ml screw tube in an amount of 800 and flushed with nitrogen gas for 5 minutes. To this, 1 g of sodium amalgam was added and vigorous shaking was performed for 2 minutes. The lid was open to exhaust hydrogen gas in the tube. Thereafter, the lid was closed and incubated for 3 minutes. The […] was filtered using syringe and cellulose membrane filter. To 600 μl of the obtained […], 2M MOPS [3-(N-morpholino)propanesulfonic acid] was added in an amount of approximately 300 thereby adjusting pH to 8.0. To determine the enzyme activity of PPO protein, a reaction mixture was prepared with the following composition (based on 10 ml): 50 mM Tris-Cl (pH 8.0); 50 mM NaCl; 0.04% (v/v) Tween 20; 40 mM glucose (0.072 g); 5 units glucose oxidase (16.6 mg); and 10 units catalase (1 μl).
# (§3) Two hundred microliters (200 μl) of reaction mixture containing a purified PPO protein were placed in 96 well plates, and preincubated for 30 min at room temperature to reduce the oxygen concentration by the reaction of glucose oxidase-catalase. The mineral oil was layered and then the reaction was initiated by adding the substrate, […], to a final concentration of 50 μM. The reaction proceeded at room temperature for 30 min and the fluorescence of protoporphyrin IX was measured using Microplate reader (Sense, Hidex) (excitation: 405 nm; emission: 633 nm). To calculate the PPO enzyme activity, protoporphyrinogen IX solution was kept open in the air to oxidize the solution (overnight). To this, 2.7N HCl was added, and the absorbance at 408 nm was measured. A standard curve was generated using standard protoporphyrin IX, and the PPO activity was measured by calibration of protoporphyrin IX using the standard curve of protoporphyrin IX.
# (§4) The final concentration of each herbicide was as follows: […]
# [2] = tested on: CyPPO13 (Synechococcus sp. JA-3-3Ab PPO, SEQ ID NO: 4) variant F373H, MBP fusion; test: PPO inhibition assay; format: biochemical; details: herbicide 0-5,000 nM, 50 μM substrate
# Method: as §1, §2, §3, §4
# [3] = tested on: CyPPO13 (Synechococcus sp. JA-3-3Ab PPO, SEQ ID NO: 4) variant F373I, MBP fusion; test: PPO inhibition assay; format: biochemical; details: herbicide 0-5,000 nM, 50 μM substrate
# Method: as §1, §2, §3, §4
# [4] = tested on: CyPPO13 (Synechococcus sp. JA-3-3Ab PPO, SEQ ID NO: 4) variant F373L, MBP fusion; test: PPO inhibition assay; format: biochemical; details: herbicide 0-5,000 nM, 50 μM substrate
# Method: as §1, §2, §3, §4
# [5] = tested on: CyPPO13 (Synechococcus sp. JA-3-3Ab PPO, SEQ ID NO: 4) variant F373N, MBP fusion; test: PPO inhibition assay; format: biochemical; details: herbicide 0-5,000 nM, 50 μM substrate
# Method: as §1, §2, §3, §4
# [6] = tested on: CyPPO13 (Synechococcus sp. JA-3-3Ab PPO, SEQ ID NO: 4) variant F373T, MBP fusion; test: PPO inhibition assay; format: biochemical; details: herbicide 0-5,000 nM, 50 μM substrate
# Method: as §1, §2, §3, §4
# [7] = tested on: CyPPO13 (Synechococcus sp. JA-3-3Ab PPO, SEQ ID NO: 4) variant F373V, MBP fusion; test: PPO inhibition assay; format: biochemical; details: herbicide 0-5,000 nM, 50 μM substrate
# Method: as §1, §2, §3, §4
# [8] = tested on: PPO-deficient BT3 E. coli (ΔPPO) with A. thaliana PPO1 mutant AtPPO1 SLYM (Y426M, S305L, SEQ ID NO: 7); test: Growth of transformed BT3 (ΔPPO) on tiafenacil media; format: cell-based
# Method: (§5) After transforming PPO-deficient BT3 E. coli (ΔPPO) with CyPPO10 or CyPPO13, the transformed BT3 (ΔPPO) was cultured on LB agar plates containing PPO-inhibiting herbicide to examine the growth level of the transformed BT3 (ΔPPO). BT3 (ΔPPO) strain was obtained from Hokkaido University (Japan). The BT3 (ΔPPO) strain is deficient in hemG-type PPO and has kanamycin tolerance (refer to “Watanabe et al., Dual targeting of spinach protoporphyrinogen oxidase II to mitochondria and chloroplasts by alternative use of two in-frame […], JBC 2001 276(23):20474-20481; Che et al., Molecular Characterization and Subcellular Localization of Protoporphyrinogen Oxidase in Spinach Chloroplasts, Plant Physiol. 2000 September; 124(1):59-70”).
# (§6) For seed culture of E. coli transformed with respective genes, each single colony of E. coli transformant as provided above was cultured in 3 ml of LB broth containing chloramphenicol overnight (220 rpm, 37° C.), and 50 to 100 μl were subcultured in a new 3 ml of LB broth, and they were cultured until absorbance (OD600) became 0.5 to 1, and they were diluted with LB broth to absorbance (OD600) of 0.5. The diluted solution was serially diluted again 5 times by a factor of one tenth with LB broth. […] The LB Agar media were incubated at 37° C., under light condition, and level of inhibiting growth was observed after 16 to 20 hours of incubation.
# (§7) Plant physiol. 2003 133:736-747).
# [9] = tested on: PPO-deficient BT3 E. coli (ΔPPO) with wild type A. thaliana PPO1 (AtPPO1 WT, SEQ ID NO: 5); test: as above; format: cell-based; details: 100 μM tiafenacil
# Method: as §5, §6, §7
# [10] = tested on: wild type A. thaliana (Col-0 ecotype); test: Herbicide injury of A. thaliana plants; format: in vivo, Arabidopsis thaliana; details: 1 μM spray, within 7 days
# Method: For comparison, the same test was conducted using the wild type A. thaliana (Col-0 ecotype).
# [11] = tested on: Kwangan soybean (non-transformed); test: Herbicide tolerance of soybean; format: in vivo; details: 5 μM painted on leaves, 7 days
# [12] = tested on: A. thaliana transformants with CyPPO10 or CyPPO13 or variants; test: Herbicide tolerance of A. thaliana transformants (T1); format: in vivo, Arabidopsis thaliana; details: 1 μM spray
# Source text: A. thaliana was transformed with a binary vector having ORF of a selectable marker, bar gene (glufosinate-tolerant), and that of each encoding gene of CyPPO10 or CyPPO13 variants. The transgenic plant was examined for cross-tolerance towards glufosinate and PPO-inhibiting herbicides. The bar gene was also used to examine whether the transgene was stably inherited during generations. NOS promoter and E9 terminator were used for bar gene expression.
smiles,measurement,setting,value
COC(=O)CCNC(=O)C(C)Sc1cc(-n2c(=O)cc(C(F)(F)F)n(C)c2=O)c(F)cc1Cl (stereo not shown) [Tiafenacil],IC50,[1],212 nM
same,IC50,[2],114 nM
same,IC50,[3],135 nM
same,IC50,[4],141 nM
same,IC50,[5],40 nM
same,IC50,[6],818 nM
same,IC50,[7],339 nM
same,growth,[8]; 400 μM tiafenacil,hardly grew
same,growth,[8]; from 100 μM tiafenacil,gradually started to exhibit growth inhibition
same,growth,[9],did not grow
same,plant damage,[10],completely died
same,leaf damage,[11],severe damage
same,plant damage,[12],no damage
